Publication PMC7753147, “High-throughput determination of protein affinities using unmodified peptide libraries in nanomolar scale” (iScience, 2020)

Tests used:
native geph = assay: µSPOT peptide microarray binding assay with native geph from mouse brain lysate
FL-geph = assay: µSPOT peptide microarray binding assay with full-length geph
gephE = assay: µSPOT peptide microarray binding assay with recombinant gephE
[1] = µSPOT full positional scan of GlyRβ 15-mer DLRSNDFSIVGSLPR, native geph, intensity normalised to wild-type sequence (= 1)
[2] = µSPOT full positional scan of GlyRβ 15-mer DLRSNDFSIVGSLPR, intensity normalised to wild-type sequence (= 1)
[3] = µSPOT peptide microarray, GlyRβ full positional scan, native geph from mouse brain lysate, intensity normalised to wild-type sequence DLRSNDFSIVGSLPR (=1)
[4] = µSPOT peptide microarray, GlyRβ full positional scan, intensity normalised to wild-type sequence DLRSNDFSIVGSLPR (=1)
[5] = µSPOT peptide microarray, GlyRβ full positional scan, recombinant gephE, intensity normalised to wild-type sequence DLRSNDFSIVGSLPR (=1)

Sequence	Native geph Binding Intensity [norm.] (native geph; [1])	Fl-geph Binding Intensity [norm.] (FL-geph; [2])	gephE Binding Intensity [norm.] (gephE; [2])	Native geph Binding Intensity [norm.] (native geph; [3])	Fl-geph Binding Intensity [norm.] (FL-geph; [4])	gephE Binding Intensity [norm.] (gephE; [5])
DLRSNDFSIVGSLVR [GlyRβ_Full_Positional_Scan_266]	0.45 norm.	0.91 norm.	0.62 norm.	–	–	–
DLRSNDFVIVGSLPR [GlyRβ_Full_Positional_Scan_146, GlyR β 414-428 variant S421V]	–	–	–	0.23 norm.	0.61 norm.	0.56 norm.
DLRSNDFSIVGSLTR [GlyRβ_Full_Positional_Scan_276]	0.49 norm.	0.96 norm.	0.74 norm.	–	–	–
DLRSNDFSIVHSLPR [GlyRβ_Full_Positional_Scan_213, GlyR β 414-428 variant G424H]	0.18 norm.	0.5 norm.	0.47 norm.	–	–	–
DLRSNDFSIVGSLRR [GlyRβ_Full_Positional_Scan_272]	0.25 norm.	0.93 norm.	0.59 norm.	–	–	–
DLRSNDFSIVMSLPR [GlyRβ_Full_Positional_Scan_218, GlyR β 414-428 variant G424M]	0.17 norm.	0.33 norm.	0.36 norm.	–	–	–
DLTSNDFSIVGSLPR [GlyRβ_Full_Positional_Scan_056]	–	–	–	1.38 norm.	1.18 norm.	0.96 norm.
DLRSNDFSIVGSLSR [GlyRβ_Full_Positional_Scan_275]	0.5 norm.	0.92 norm.	0.72 norm.	–	–	–
DLRSNDFSIVGSLPC [GlyRβ_Full_Positional_Scan_297]	0.97 norm.	1.04 norm.	0.83 norm.	–	–	–
DLRSNDHSIVGSLPR [GlyRβ_Full_Positional_Scan_133, GlyR β 414-428 variant F420H]	–	–	–	0.44 norm.	0.61 norm.	0.57 norm.
DLRSNKFSIVGSLPR [GlyRβ_Full_Positional_Scan_114]	–	–	–	0.37 norm.	0.98 norm.	0.8 norm.
DLRSNDFSIVGSLGR [GlyRβ_Full_Positional_Scan_262]	0.44 norm.	0.82 norm.	0.6 norm.	–	–	–
DLRYNDFSIVGSLPR [GlyRβ_Full_Positional_Scan_069]	–	–	–	0.93 norm.	0.83 norm.	0.96 norm.
DLRSNDFSIVGSLPW [GlyRβ_Full_Positional_Scan_288]	0.76 norm.	0.84 norm.	0.89 norm.	–	–	–
DLRSNDFSIPGSLPR [GlyRβ_Full_Positional_Scan_185, GlyR β 414-428 variant V423P]	–	–	–	0.31 norm.	0.51 norm.	0.41 norm.
DLRSNDFSIVGSLLR [GlyRβ_Full_Positional_Scan_264]	0.32 norm.	0.74 norm.	0.66 norm.	–	–	–
DLRSNLFSIVGSLPR [GlyRβ_Full_Positional_Scan_104]	–	–	–	0.37 norm.	0.9 norm.	0.78 norm.
DLRNNDFSIVGSLPR [GlyRβ_Full_Positional_Scan_079]	–	–	–	0.88 norm.	0.99 norm.	0.92 norm.
DLRSNDFRIVGSLPR [GlyRβ_Full_Positional_Scan_152, GlyR β 414-428 variant S421R]	–	–	–	0.23 norm.	0.92 norm.	0.8 norm.

Sequence	Native geph Binding Intensity [norm.] (native geph; [1])	Fl-geph Binding Intensity [norm.] (FL-geph; [2])	gephE Binding Intensity [norm.] (gephE; [2])	Native geph Binding Intensity [norm.] (native geph; [3])	Fl-geph Binding Intensity [norm.] (FL-geph; [4])	gephE Binding Intensity [norm.] (gephE; [5])
DLFSNDFSIVGSLPR [GlyRβ_Full_Positional_Scan_047]	–	–	–	1.18 norm.	1.29 norm.	0.89 norm.
DLRSNMFSIVGSLPR [GlyRβ_Full_Positional_Scan_118]	–	–	–	0.62 norm.	0.84 norm.	0.85 norm.
DLRSNDFSIVWSLPR [GlyRβ_Full_Positional_Scan_208, GlyR β 414-428 variant G424W]	–	–	–	0.16 norm.	0.35 norm.	0.32 norm.
DLRINDFSIVGSLPR [GlyRβ_Full_Positional_Scan_063]	–	–	–	1.05 norm.	0.91 norm.	0.92 norm.
DLRSNDFSIAGSLPR [GlyRβ_Full_Positional_Scan_181, GlyR β 414-428 variant V423A]	–	–	–	0.47 norm.	0.65 norm.	0.51 norm.
DLRSNDFSIVGELPR [GlyRβ_Full_Positional_Scan_231]	0.49 norm.	0.84 norm.	0.64 norm.	–	–	–
YLRSNDFSIVGSLPR [GlyRβ_Full_Positional_Scan_009]	–	–	–	0.74 norm.	1 norm.	1.05 norm.
DLRHNDFSIVGSLPR [GlyRβ_Full_Positional_Scan_073]	–	–	–	0.86 norm.	0.84 norm.	0.92 norm.
DLRSVDFSIVGSLPR [GlyRβ_Full_Positional_Scan_086]	–	–	–	0.72 norm.	0.83 norm.	0.84 norm.
DLRSNSFSIVGSLPR [GlyRβ_Full_Positional_Scan_115]	–	–	–	0.75 norm.	0.92 norm.	0.89 norm.
DLRSNDFSIVGSLPP [GlyRβ_Full_Positional_Scan_285]	1.08 norm.	1.03 norm.	1.02 norm.	–	–	–
DLRSTDFSIVGSLPR [GlyRβ_Full_Positional_Scan_096]	–	–	–	0.73 norm.	0.78 norm.	1.06 norm.
DLRPNDFSIVGSLPR [GlyRβ_Full_Positional_Scan_065]	–	–	–	0.71 norm.	0.64 norm.	0.89 norm.
DLRSNDFSKVGSLPR [GlyRβ_Full_Positional_Scan_174, GlyR β 414-428 variant I422K]	–	–	–	0.13 norm.	0.58 norm.	0.47 norm.
DLRSNDFSIVLSLPR [GlyRβ_Full_Positional_Scan_204, GlyR β 414-428 variant G424L]	–	–	–	0.23 norm.	0.53 norm.	0.57 norm.
KLRSNDFSIVGSLPR [GlyRβ_Full_Positional_Scan_014]	–	–	–	0.32 norm.	0.94 norm.	1.03 norm.
DLRSNDFSIVGSQPR [GlyRβ_Full_Positional_Scan_260]	0.8 norm.	0.97 norm.	0.76 norm.	–	–	–
DLRSNIFSIVGSLPR [GlyRβ_Full_Positional_Scan_103]	–	–	–	0.35 norm.	0.97 norm.	0.79 norm.
